Source: patent US12552757B2, “NRF2-activating compound” (SENJU PHARMACEUTICAL CO., LTD., priority 2019, dated 2026)

Assays:
[1] = tested on: NRF2; assay: Measurement 2 of Nrf2 activating action (reporter assay) in HCE-T/ARE-Luc cells; assay type: cell-based; conditions: 50% activation concentration, culture for 24 hours
Protocol: The NRF2 activating action of the compounds on cells was measured by a reporter gene assay. pGL4.37[luc2P/ARE/Hygro](Promega) was introduced into HCE-T cells using FuGENE HD. Cells that acquired drug resistance as a result of transduction were screened by culture in the presence of 50 μg/mL hygromycin, and a clone strain, HCE-T/ARE-Luc, was established.
HCE-T/ARE-Luc was cultured using DMEM/F12, 10 ng/mL hEGF, 5 μg/mL insulin, and 5% FBS. Phenol red-free DMEM/F12 was used as the assay medium.
HCE-T/ARE-Luc was seeded in a 96-well polystyrene microplate (FALCON) with 10000 cells per well. The cells were incubated in a CO: incubator at 37° C. for 16 hours to allow for cell adhesion. The test substance was dissolved in dimethylsulfoxide to prepare a solution at a concentration 1000 times higher than the test concentration. The test substance diluted 1000-fold in the assay medium was added, followed by culture for 24 hours. When measuring the activity of the reporter, the medium containing the test substance was removed, and then a new medium and a substrate of ONE-GloEX Luciferase Assay System (Promega) were added. The plate was shaken for 1 minute and then allowed to stand at ordinary temperature for 10 minutes, and luminescence was detected using the GloMax Discover System.
The 50% activation concentration of each test substance was calculated by creating a calibration curve between two concentrations across the luminescence intensity of 50%.

[2] = Measurement of metabolic stability in human liver microsomes; assay type: in vitro ADME; conditions: residual ratio of test compound after 30 minutes at 37° C. with human liver microsome, LC/MS/MS
Protocol: 1 mmol/L DMSO solutions of the compounds produced in the Examples were prepared. Each of the 1 mmol/L DMSO solutions was diluted with acetonitrile to 10 μmol/L, and then diluted with a 6.5 mmol/L Q-NADPH solution to 200 nmol/L. 50 μL of each solution was added to the reaction group and the non-reaction group. 50 μL of a 0.2 mg protein/mL human liver microsome (Mixed Gender, Pool of 50 livers; XenoTech, LLC) solution was added to the reaction group, followed by incubation at 37° C. for 30 minutes with shaking. After 400 μL of methanol was added to the non-reaction group, 50 μL of a 0.2 mg protein/mL human liver microsome solution was added to adjust the formulation. After incubation in the reaction group, 400 μL of methanol was added to stop the reaction. The samples of the reaction group and non-reaction group were allowed to stand at −20° C. for about 30 minutes, followed by centrifugation at 4° C. at 3000 rpm for about 10 minutes. The supernatant was analyzed using LC/MS/MS, and the residual ratio of the test compound was calculated from the peak area value of the test compound using the following formula. The measurement was carried out using the following devices: HPLC system: LC-20A-Series High Performance Liquid Chromatograph (Shimadzu Corporation) and mass spectrometer: API 4000 (AB Sciex Pte. Ltd.), or using equivalent devices. Residual ratio (%)=(peak area value of test compound in reaction group/peak area value of test compound in non-reaction group)×100 Results

[3] = target: T1, binding between NRF2 and KEAP1 (Homo sapiens, UniProt Q14145); assay: Measurement 1 of Nrf2 activating action (binding assay): BRET assay of inhibition of the binding between NRF2 and KEAP1; conditions: 50% binding inhibitory concentration, NanoLuc-NRF2 / KEAP1-HaloTag cell lysates
T1 construct: expressed in transfected cells; host or cells: HCE-T cells; each protein was expressed separately, and the two cell lysates were mixed in the well
T1 sequence (Q14145 whole entry): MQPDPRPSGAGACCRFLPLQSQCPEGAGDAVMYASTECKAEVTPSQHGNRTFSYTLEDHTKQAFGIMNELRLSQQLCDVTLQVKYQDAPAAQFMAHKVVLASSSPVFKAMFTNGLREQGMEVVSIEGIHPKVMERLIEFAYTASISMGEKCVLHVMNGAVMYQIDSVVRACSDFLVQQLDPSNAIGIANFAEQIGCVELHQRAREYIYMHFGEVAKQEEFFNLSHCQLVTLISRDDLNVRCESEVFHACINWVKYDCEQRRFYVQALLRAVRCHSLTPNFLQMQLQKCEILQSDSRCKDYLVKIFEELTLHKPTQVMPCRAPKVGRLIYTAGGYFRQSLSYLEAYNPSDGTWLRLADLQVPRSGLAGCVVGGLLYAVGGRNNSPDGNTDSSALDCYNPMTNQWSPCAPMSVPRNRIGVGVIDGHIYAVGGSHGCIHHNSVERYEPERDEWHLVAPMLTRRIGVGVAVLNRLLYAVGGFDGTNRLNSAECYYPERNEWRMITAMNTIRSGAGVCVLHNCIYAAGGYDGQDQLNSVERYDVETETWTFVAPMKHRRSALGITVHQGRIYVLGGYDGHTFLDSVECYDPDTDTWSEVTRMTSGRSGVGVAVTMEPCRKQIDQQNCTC
Protocol: Compounds 1 to 53 produced in the Examples were used as test substances.
The inhibitory activity of each compound on the binding between NRF2 and KEAP1 was measured by bioluminescence resonance energy transfer (BRET) assay. A plasmid having human NRF2 (Original Clone ID: ha01449s1) sequence fused with NanoLuc (19 kDa, Promega) at the N-terminal was transduced into HCE-T cells using FuGENE HD (Promega). 48 hours after transduction, the cell lysate was collected and used as an NRF2-expressing cell lysate. A plasmid having human KEAP1 (Original Clone ID: cs00328) sequence fused with HaloTag (33 kDa, Promega) at the C-terminal was transduced into HCE-T cells using FuGENE HD (Promega). After 24 hours, HaloTag Nano BRET 618 Ligand (Promega) was added to the medium. The cell lysate cultured for 24 hours after the addition was used as a KEAP1-expressing cell lysate.
The NRF2-expressing cell lysate and the KEAP1-expressing cell lysate were adjusted so that the luminescence and fluorescence intensities per well were constant. Tables 1 and 2 show the formulation of each reaction solution.
Each test substance at a concentration 100 times higher than the test concentration was dissolved in dimethylsulfoxide for adjustment. 49 μL of KEAP1 solution was added to a 96-well polystyrene microplate (FALCON) to which 1 μL of each test substance solution was added, followed by incubation for 15 minutes. Then, 50 μL of NRF2 solution was added to the above solution, followed by incubation for 1 hour. To measure the binding between NRF2 and KEAP1, NanoBRET Nano-Glo Substrate (Promega) diluted with Opti-Mem (Thermo Fisher Scientific) was added, followed by shaking for 30 seconds. Then, luminescence and fluorescence were measured using the GloMax Discover System (Promega). A 495-nm short pass filter and a 600-nm long pass filter were respectively used to measure donor and acceptor emission values. A value obtained by dividing the acceptor emission value by the donor emission value was regarded as BRET value. A BRET value when the compound was not added, and a BRET value when the KEAP1 solution was not added were respectively used as binding rates of 100% and 0%, and the binding rate when the compound was added was calculated. Further, using this binding rate, the 50% binding inhibitory activity concentration (IC50) was calculated from the following formula: IC50(M)=10^(LOG(A/B)×(50−C)/(D−C)+LOG(B)) • A: higher concentration out of 2 close concentrations across the inhibition rate of 50% • B: lower concentration out of 2 close concentrations across the inhibition rate of 50% • C: inhibition rate at B • D: inhibition rate at A

| Compound | EC50 [1] | Metabolic stability* [2] | IC50 [3] |
| --- | --- | --- | --- |
| CC[C@@H]1CN(Cc2cc(C(c3ccc(C(C)=O)s3)C(C)(C)C(=O)O)ccc2C)S(=O)(=O)c2cnccc2O1 (stereo partly drawn) [Compound 48, 3-(5-acetylthiophen-2-yl)-3-(3-{[(R)-4-ethyl-1,1-dioxide-3,4-dihydro-2H-pyrido[4,3-b][1,4,5]oxathiazepin-2-yl]methyl}-4-methylphenyl)-2,2-dimethylpropanoic acid] | 3.67 nM | 56% |  |
| CC[C@@H]1CN(Cc2cc(C(c3cc(F)c(C(C)=O)s3)C(C)(C)C(=O)O)ccc2C)S(=O)(=O)c2cnccc2O1 (stereo partly drawn) [Compound 49, 3-(5-acetyl-4-fluorothiophen-2-yl)-3-(3-{[(R)-4-ethyl-1,1-dioxide-3,4-dihydro-2H-pyrido[4,3-b][1,4,5]oxathiazepin-2-yl]methyl}-4-methylphenyl)-2,2-dimethylpropanoic acid] | 7.76 nM | 44% |  |
| CC[C@@H]1CN(Cc2cc(C(c3ccc(C(C)=O)s3)C(C)C(=O)O)ccc2C)S(=O)(=O)c2cnccc2O1 (stereo partly drawn) [Compound 16, 3-(5-acetylthiophen-2-yl)-3-(3-{[(R)-4-ethyl-1,1-dioxide-3,4-dihydro-2H-pyrido[4,3-b][1,4,5]oxathiazepin-2-yl]methyl}-4-methylphenyl)-2-methylpropanoic acid] | 3.57 nM | 51% |  |
| CC[C@@H]1CN(Cc2cc(C(CC(=O)O)c3c(C)c(C(C)=O)c(C)n3C)ccc2C)S(=O)(=O)c2ccccc2O1 (stereo partly drawn) [Compound 35, 3-(4-acetyl-1,3,5-trimethyl-1H-pyrrol-2-yl)-3-(3-{[(R)-4-ethyl-1,1-dioxide-3,4-dihydro-2H-benzo[b][1,4,5]oxathiazepin-2-yl]methyl}-4-methylphenyl) propanoic acid] |  | 39% | 3.9 nM |
| CC[C@@H]1CN(Cc2cc(C(CC(=O)O)c3ccc(C(=O)N4CCCC4)o3)ccc2C)S(=O)(=O)c2ccccc2O1 (stereo partly drawn) [Compound 28, 3-(3-{[(R)-4-ethyl-1,1-dioxide-3,4-dihydro-2H-benzo[b][1,4,5]oxathiazepin-2-yl]methyl}-4-methylphenyl)-3-[5-(pyrrolidine-1-carbonyl)furan-2-yl]propanoic acid] |  | 67% | 19 nM |
| CC[C@@H]1CN(Cc2cc(C(CC(=O)O)c3ccc(C(=O)C4CC4)s3)ccc2C)S(=O)(=O)c2ccccc2O1 (stereo partly drawn) [Compound 20, 3-[5-(cyclopropanecarbonyl)thiophen-2-yl]-3-(3-{[(R)-4-ethyl-1,1-dioxide-3,4-dihydro-2H-benzo[b][1,4,5]oxathiazepin-2-yl]methyl}-4-methylphenyl)propanoic acid] |  | 7% | 24 nM |
| CC[C@@H]1CN(Cc2cc(C(CC(=O)O)c3ccc(CNC(C)C)o3)ccc2C)S(=O)(=O)c2ccccc2O1 (stereo partly drawn) [Compound 32, 3-(3-{[(R)-4-ethyl-1,1-dioxide-3,4-dihydro-2H-benzo[b][1,4,5]oxathiazepin-2-yl]methyl}-4-methylphenyl)-3-(5-[(isopropylamino)methyl]furan-2-yl)propanoic acid] |  | 90% | 205 nM |
| CC[C@@H]1CN(Cc2cc(C(CC(=O)O)c3nc(C)c(C(C)=O)s3)ccc2C)S(=O)(=O)c2ccccc2O1 (stereo partly drawn) [Compound 41, 3-(5-acetyl-4-methylthiazol-2-yl)-3-(3-[{(R)-4-ethyl-1,1-dioxide-3,4-dihydro-2H-benzo[b][1,4,5]oxathiazepin-2-yl]methyl}-4-methylphenyl) propanoic acid] |  | 65% | 3.3 nM |

Next, values leading:

| EC50 [1] | Metabolic stability* [2] | IC50 [3] | Compound |
| --- | --- | --- | --- |
|  | 89% | 3.8 nM | CC[C@@H]1CN(Cc2cc(C(CC(=O)O)c3cncs3)ccc2C)S(=O)(=O)c2ccccc2O1 (stereo partly drawn) [Compound 39, 3-(3-{[(R)-4-ethyl-1,1-dioxide-3,4-dihydro-2H-benzo[b][1,4,5]oxathiazepin-2-yl]methyl}-4-methylphenyl)-3-(thiazol-5-yl)propanoic acid] |
|  | 29% | 2.5 nM | CC[C@@H]1CN(Cc2cc(C(CC(=O)O)c3cc(C#N)n(C)c3)ccc2C)S(=O)(=O)c2ccccc2O1 (stereo partly drawn) [Compound 36, 3-(5-cyano-1-methyl-1H-pyrrol-3-yl)-3-(3-{[(R)-4-ethyl-1,1-dioxide-3,4-dihydro-2H-benzo[b][1,4,5]oxathiazepin-2-yl]methyl}-4-methylphenyl)propanoic acid] |
|  | 77% | 99 nM | CC[C@@H]1CN(Cc2cc(C(CC(=O)O)c3cc(C)c(C(=O)NC)o3)ccc2C)S(=O)(=O)c2ccccc2O1 (stereo partly drawn) [Compound 31, 3-(3-{[(R)-4-ethyl-1,1-dioxide-3,4-dihydro-2H-benzo[b][1,4,5]oxathiazepin-2-yl]methyl}-4-methylphenyl)-3-[4-methyl-5-(methylcarbamoyl)furan-2-yl]propanoic acid] |
|  | 83% | 17 nM | CC[C@@H]1CN(Cc2cc(C(CC(=O)O)c3ccc(C(=O)NC(C)C)o3)ccc2C)S(=O)(=O)c2ccccc2O1 (stereo partly drawn) [Compound 29, 3-(3-{[(R)-4-ethyl-1,1-dioxide-3,4-dihydro-2H-benzo[b][1,4,5]oxathiazepin-2-yl]methyl}-4-methylphenyl)-3-[5-(isopropylcarbamoyl)furan-2-yl]propanoic acid] |
|  | 89% | 0.16 nM | CC[C@@H]1CN(Cc2cc(C(CC(=O)O)c3cc4c(n3C)CCCC4=O)ccc2C)S(=O)(=O)c2ccccc2O1 (stereo partly drawn) [Compound 37, 3-(3-{[(R)-4-ethyl-1,1-dioxide-3,4-dihydro-2H-benzo[b][1,4,5]oxathiazepin-2-yl]methyl}-4-methylphenyl)-3-(1-methyl-4-oxo-4,5,6,7-tetrahydro-1H-indol-2-yl)propanoic acid] |
|  | 69% | 2.6 nM | CC[C@@H]1CN(Cc2cc(C(CC(=O)O)c3ncc(C(C)=O)s3)ccc2C)S(=O)(=O)c2ccccc2O1 (stereo partly drawn) [Compound 40, 3-(5-acetylthiazol-2-yl)-3-(3-{[(R)-4-ethyl-1,1-dioxide-3,4-dihydro-2H-benzo[b][1,4,5]oxathiazepin-2-yl]methyl}-4-methylphenyl)propanoic acid] |
